The values below are quoted from earlier work in paper PMC9998351 (Steroids, 2023).

This data set relates to CRPC CWR22Rv1 xenograft tumors. The following applies: CWR22Rv1 xenograft; 2 at 7.53-fold lower equimolar dose than Gal; p < 0.01; ref [26]; cited from earlier work.

Each structure is given as a SMILES string.

On to `C[C@]12CC[C@H](O)CC1=CC[C@@H]1[C@@H]2CC[C@]2(C)C(n3cnc4ccccc43)=CC[C@@H]12` [Gal, Galeterone, reference compound], for which the “Suppression of tumor growth” value was 47%.
